From patent US6784137B2, “6-aryl-4-aminopicolinates and their use as herbicides” (Dow AgroSciences LLC, priority 2001, dated 2004)

| melting point [°C] | SMILES |
| --- | --- |
| 146 to 148 | COC(=O)c1nc(-c2ccc(C(C)=O)cc2)cc(N)c1Cl [Compound 31, Methyl 4-amino-3-chloro-6-(4-acetylphenyl)pyridine-2-carboxylate] |
| 155 to 156 | COC(=O)c1nc(-c2ccc(Cl)c(C)c2)cc(N)c1Cl [Compound 38, Methyl 4-amino-3-chloro-6-(4-chloro-3-methylphenyl)pyridine-2-carboxylate] |
| 170 | COC(=O)c1nc(-c2ccc(Cl)c(Cl)c2)cc(N)c1Cl [Compound 40, Methyl 4-amino-3-chloro-6-(3,4-dichlorophenyl)pyridine-2-carboxylate] |
| 162 to 163 | COC(=O)c1nc(-c2ccc(F)cc2Cl)cc(NC(C)=O)c1Cl [Compound 54, Methyl 4-acetamido-3-chloro-6-(2-chloro-4-fluorophenyl)pyridine-2-carboxylate] |
| 156 to 157 | COC(=O)c1nc(-c2c(F)cccc2F)cc(NC(C)=O)c1Cl [Compound 55, Methyl 4-acetamido-3-chloro-6-(2,6-difluorophenyl)pyridine-2-carboxylate] |
| 143 | COC(=O)c1nc(-c2cc(Cl)ccc2Cl)cc(NC(C)=O)c1Cl [Compound 57, Methyl 4-acetamido-3-chloro-6-(2,5-dichlorophenyl)pyridine-2-carboxylate] |
| 156 to 157 | COC(=O)c1nc(-c2ccc(Cl)c(F)c2)cc(NC(C)=O)c1Cl [Compound 60, Methyl 4-acetamido-3-chloro-6-(4-chloro-3-fluorophenyl)pyridine-2-carboxylate] |
| 149 to 151 | COC(=O)c1nc(-c2ccc(Cl)c(F)c2)cc(N)c1Cl [Compound 61, Methyl 4-amino-3-chloro-6-(4-chloro-3-fluorophenyl)pyridine-2-carboxylate] |
| 153 to 154 | COC(=O)c1nc(-c2ccc(OC)c(OC)c2)cc(NC(C)=O)c1Cl [Compound 63, Methyl 4-acetamido-3-chloro-6-(3,4-dimethoxyphenyl)pyridine-2-carboxylate] |
| 176 to 178 | COC(=O)c1nc(-c2ccc(Cl)cc2OC)cc(NC(C)=O)c1Cl [Compound 66, Methyl 4-acetamido-3-chloro-6-(4-chloro-2-methoxyphenyl)pyridine-2-carboxylate] |
| 120 to 122 | COCc1cc(-c2cc(NC(C)=O)c(Cl)c(C(=O)OC)n2)ccc1Cl [Compound 70, Methyl 4-acetamido-3-chloro-6-(4-chloro-3-methoxymethylphenyl)pyridine-2-carboxylate] |
| 195 to 196 | COC(=O)c1nc(-c2ccc3c(c2Cl)OCO3)cc(NC(C)=O)c1Cl [Compound 72, Methyl 4-acetamido-3-chloro-6-(2-chloro-3,4-methylenedioxyphenyl)pyridine-2-carboxylate] |
| 132 to 134 | COC(=O)c1nc(-c2ccc3c(c2)CCC3)cc(NC(C)=O)c1Cl [Compound 74, Methyl 4-acetamido-3-chloro-6-(5-indanyl)pyridine-2-carboxylate] |

Second part, the compound before the results:

| SMILES | melting point [°C] |
| --- | --- |
| COC(=O)c1nc(-c2cnco2)cc(N)c1Cl [Compound 7, methyl 4-amino-3-chloro-6-(5-oxazolyl)pyridine-2-carboxylate] | 166 to 170 |
| COC(=O)c1nc(-c2nc3ccccc3s2)cc(N)c1Cl [Compound 9, Methyl 4-amino-3-chloro-6-(2-benzthiazolyl)pyridine-2-carboxylate] | 224 |
| COC(=O)c1nc(-c2nnnn2C)cc(N)c1Cl [Compound 10, Methyl 4-amino-3-chloro-6-(1-methyl-1H-tetrazol-5-yl)pyridine-2-carboxylate] | 239 to 241 |
| COC(=O)c1nc(-c2nnn(C)n2)cc(N)c1Cl [Compound 11, Methyl 4-amino-3-chloro-6-(2-methyl-2H-tetrazol-5-yl)pyridine-2-carboxylate] | 250 to 252 |
| COC(=O)c1nc(-c2ccc(Cl)cc2)c(F)c(N)c1Cl [Compound 14, Methyl 4-amino-3-chloro-5-fluoro-6-(4-chlorophenyl)pyridine-2-carboxylate] | 233 to 236 |
| COC(=O)c1nc(-c2ccc(OC)cc2)c(Cl)c(N)c1Cl [Compound 15, Methyl 4-amino-3,5-dichloro-6-(4-methoxyphenyl)pyridine-2-carboxylate] | 107 to 109 |
| COC(=O)c1nc(-c2cccc(OC)c2)cc(N)c1Cl [Compound 24, Methyl 4-amino-3-chloro-6-(3-methoxyphenyl)pyridine-2-carboxylate] | 122 to 123 |
| COC(=O)c1nc(-c2ccccc2Cl)cc(N)c1Cl [Compound 26, Methyl 4-amino-3-chloro-6-(2-chlorophenyl)pyridine-2-carboxylate] | 115 to 117 |
| COC(=O)c1nc(-c2cc(Br)ccc2OC)cc(N)c1Cl [Compound 32, Methyl 4-amino-3-chloro-6-(5-bromo-2-methoxyphenyl)pyridine-2-carboxylate] | 191 to 192 |
| COC(=O)c1nc(-c2ccc(C(C)C)cc2)cc(N)c1Cl [Compound 35, Methyl 4-amino-3-chloro-6-(4-isopropylphenyl)pyridine-2-carboxylate] | 92 to 93 |
| COC(=O)c1nc(-c2ccccc2F)cc(N)c1Cl [Compound 37, Methyl 4-amino-3-chloro-6-(2-fluorophenyl)pyridine-2-carboxylate] | 121 to 122 |
| COC(=O)c1nc(-c2ccc(C=O)cc2)cc(N)c1Cl [Compound 41, Methyl 4-amino-3-chloro-6-(4-formylphenyl)pyridine-2-carboxylate] | 106 to 108 |
| COC(=O)c1nc(-c2cccc(C#N)c2)cc(N)c1Cl [Compound 42, Methyl 4-amino-3-chloro-6-(3-cyanophenyl)pyridine-2-carboxylate] | 139 to 140 |
| COC(=O)c1nc(-c2cc(C(F)(F)F)cc(C(F)(F)F)c2)cc(N)c1Cl [Compound 46, Methyl 4-amino-3-chloro-6-(3,5-bis-(trifluoromethyl)phenyl)pyridine-2-carboxylate] | 139 to 140 |
| COC(=O)c1nc(-c2ccc(OC(F)(F)F)cc2)cc(N)c1Cl [Compound 56, Methyl 4-amino-3-chloro-6-[4-(trifluoromethoxy)phenyl]pyridine-2-carboxylate] | 119 to 120 |
| COC(=O)c1nc(-c2ccc(OC)c(OC)c2)cc(N)c1Cl [Compound 64, Methyl 4-amino-3-chloro-6-(3,4-dimethoxyphenyl)pyridine-2-carboxylate] | 126 to 127 |
| COC(=O)c1nc(-c2ccc(Cl)cc2OC)cc(N)c1Cl [Compound 68, Methyl 4-amino-3-chloro-6-(4-chloro-2-methoxyphenyl)pyridine-2-carboxylate] | 152 to 154 |
| COCc1cc(-c2cc(N)c(Cl)c(C(=O)OC)n2)ccc1Cl [Compound 71, Methyl 4-amino-3-chloro-6-(4-chloro-3-methoxymethylphenyl)pyridine-2-carboxylate] | 73 to 74 |
| COC(=O)c1nc(-c2ccc3c(c2Cl)OCO3)cc(N)c1Cl [Compound 73, Methyl 4-amino-3-chloro-6-(2-chloro-3,4-methylenedioxyphenyl)pyridine-2-carboxylate] | 155 to 156 |
